Test results: paper PMC4423777, “Ciprofloxacin Derivatives Affect Parasite Cell Division and Increase the Survival of Mice Infected with Toxoplasma gondii” (PLoS ONE, 2015)
Several values for one entry are separate records, joined by “and”; a condition that tells them apart may be missing. Identical values can stand only once. Entries after “also recorded” stand apart in the source; their conditions may differ. Like-named read-outs stand apart in the source and are kept apart here.

What was measured:
[1] = tested on: Cryptosporidium parvum sporozoites; test: Cryptosporidium parvum in vitro growth assay in MDBK cells; type: cell-based
Experimental: C. parvum oocysts obtained from infected neonatal calves (Institut National de la Recherche Agronomique-INRA, Nouzilly, France) were purified as previously described and stored in PBS at 4°C. Madin Darby bovine kidney cell line (MDBK; ECACC # 88081201, Sophia Antipolis, France) was cultured at 37°C in a 5% CO2 moist atmosphere in growth medium: RPMI 1640 (Sigma, L’Isle d’Abeau, France) supplemented with 25 mM HEPES (Sigma H-3375), 200 U/ml of penicillin, 200 μg/ml of streptomycin (Sigma P-0781) and 10% fetal calf serum (FCS; Dutscher, Brumath, France).
Prior to infection, MDBK cells were trypsinized and seeded in just one well of a 24-well plate in 2 ml of RPMI 1640 with 1% FCS. Aseptic oocysts were prepared for excystation by incubation in RPMI-1640, pH 2 (for 30 min at 37°C). Then, oocytes were washed in RPMI 1640 with 1% FCS and allowed to interact with MDBK cells for 1.5 h at 37°C in a 5% CO2 atmosphere. After 3 washes by centrifugation at 160 g in RPMI 1640 to remove non-excysted oocysts and shells, infected cells were plated in 24-well plates containing glass coverslips, in 500 μl/well of RPMI/1%FCS, and allowed to settle for 24 h. The infected cells were subsequently washed 3 times with RPMI 1640 and allowed to grow for a further 5 h (in 500 μl/well of RPMI/1% FCS). 500 μl of medium containing twice-concentrated Cipro derivatives were then added in triplicates in an equal volume of growth medium and left for another 24 h. Cells were fixed in 100% methanol and stained with 20% Giemsa and 1% Alcian blue as previously described, and the effects against sporozoite proliferation were evaluated by examining at least 1000 cells/coverslip in a light microscope, using an oil immersion X100 objective.

[2] = tested on: T. gondii; test: Plaque assay in human foreskin fibroblasts, 10 days treatment; type: cell-based, Toxoplasma gondii; conditions: HFF
Experimental: For plaque assay, 6-well tissue culture plates were seeded with human foreskin fibroblasts (HFF; ATCC). HFF was grown in high glucose Dulbeco’s Modified Eagle Medium supplemented with 10% FBS, 2mM L-glutamine, 100 U/ml penicillin, and 100 μg/ml streptomycin and maintained at 37°C with 5% CO2. After cultures reached confluence each well was infected with 10^4 of T. gondii. Infected cultures were treated for 10 days with Cipro derivatives, Cipro or left untreated.

[3] = tested on: T. gondii tachyzoites; test: Parasites per vacuole in LLC-MK2 cells after 6 h treatment (light microscopy); type: cell-based, Toxoplasma gondii
Experimental: For the treatment of T. gondii tachyzoites with Cipro derivatives in vitro, 5x10^5 LLC-MK2 cells (ATCC CCL7, Rockville, MD/EUA) in RPMI medium were plated on coverslips inside 24-well tissue culture plates, and allowed to settle at 37°C (5% CO2) for ~24h. Then, cells were infected with parasites (freshly-harvested from infected mice) at a 10:1 ratio of parasites to host cells. […] Then, coverslips were fixed with Bouin and stained with panoptic (solutions 2 and 3 of the ‘Panotico rápido’ kit, from Laborclin Ltda., Paraná, Brazil). Alternatively, cultures were washed three times with 0.5 ml of medium (to remove test compounds) and incubated for an additional 18 h in medium without drugs, before fixing and staining. The number of parasites per vacuole was scored by direct light microscopy examination. Three independent experiments were performed for each treatment condition, and the results were analyzed by two-way ANOVA (using GraphPad Prism 5.0).

[4] = tested on: T. gondii tachyzoites; test: Immunofluorescence microscopy of treated tachyzoites in LLC-MK2 cells (cell division arrest, basal IMC gap); type: cell-based, Toxoplasma gondii; conditions: for Basal IMC length mean: untreated control 0.65 ± 0.11 μm; for Effect on parasite division, anti-IMC1 labeling: 1 and 5 μM Et-Cipro and Adam-Cipro, 10 μM Ph-Cipro
Experimental: For Cipro assay, cells were infected in a ratio of 5:1 parasites per host cell and treated for 24, 48 and 72h. After treatment, infected cells were fixed in 3.7% freshly-prepared formaldehyde, permeabilized with 0.5% Triton X-100 for 15 min, and blocked with 3% bovine serum albumin (BSA) in PBS at pH 7.4 and room temperature for 1 h. All antibody incubations were performed in 3% BSA in PBS, for 1h, at room temperature. The following primary antibodies were used: anti-SAG1 (kindly provided by Dr. John Boothroyd, Stanford University School of Medicine, USA), at a dilution of 1:1000; anti-HSP60 and anti-Morn1 (kindly provided by Dr. Boris Striepen, University of Georgia, USA), diluted to 1:2000 and 1:100, respectively; and anti-IMC1 (kindly provided by Dr. Gary Ward, University of Vermont, USA), diluted to 1:1000. The secondary antibodies used here were anti-mouse/rabbit coupled to Alexa 488 or 546 (Molecular Probes). Sytox green (Molecular Probes) and DAPI (Sigma-Aldrich) were used to label the DNA. After labeling, the coverslips were mounted onto slides using Prolong gold (Life Technologies), and samples were examined on a TCSSP5 Leica or Zeiss LSM710 laser scanning confocal microscopes.

[5] = tested on: T. gondii tachyzoites; conditions: read-out: IC50 against T. gondii in vitro; after 48 h of treatment; cited from earlier work
[6] = for Serum levels of creatinine kinase (in words): single oral dose, 48 h; for Mouse weight (g) After 48 h / Mouse weight (g) Initial: uninfected Swiss mice; for Mouse weight (g) Initial: before dosing; for Serum urea: reference 18–29 mg/dL; for Serum creatinine kinase: reference ≤ 1070 U/L
Experimental: Acute toxicity analysis was performed using non-infected female Swiss mice (19–21 g).

[7] = tested on: T. gondii tachyzoites (RH strain); test: Survival of mice acutely infected with T. gondii, 7-day oral treatment; type: in vivo, Toxoplasma gondii; conditions: 7 days, from 24 h post-infection
Experimental: In this study, we used tachyzoite forms the RH strain of Toxoplasma gondii, obtained from the peritoneal cavity of mice 2 days after infection. […] Drinking water and food were given ad libitum.
To determine compound efficacy against T. gondii in vivo, female Swiss mice were infected intraperitoneally (i.p.) with 5x10^3 T. gondii tachyzoites and treated with test compounds from 24 h post-infection. […] Mice were treated once daily for 7 days, by oral gavage, and mouse mortality was monitored once a day for a period of 60 days. During survival studies, mice were not inflicted to any suffering condition and mice presenting morbidity symptoms (shivering, ruffled hair and immobility) were euthanized by CO2 asphyxiation to minimize animal suffering, and then mortality was scored. Survival curves were calculated using the Kaplan and Meier method, and compared using the log-rank (Mantel-Cox) test, in GraphPad Prism 5.0 (GraphPad Software Inc.) and P<0.05 was considered statistically significant.

[8] = tested on: T. gondii; parameters: method as in PMID 8843293, PMID 11120943; conditions: read-out: IC50 against T. gondii, cited from earlier work

SMILES	Parasite proliferation in plaque assay ([2]; 10 μM)	% inhibition of sporozoites growth ([1]; 12.5 μM, 24 h, MDBK cells) [%]	% inhibition of sporozoites growth ([1]; 25 μM, 24 h, MDBK cells) [%]	IC50 [5] [nM]	Mouse weight (g) After 48 h ([6]; single oral dose 25 mg/kg) [g]	Mouse weight (g) Initial ([6]; single oral dose 25 mg/kg) [g]	Serum urea ([6]; single oral dose 25 mg/kg) [mg/dL]	Mouse weight (g) After 48 h ([6]; single oral dose 50 mg/kg) [g]	Mouse weight (g) Initial ([6]; single oral dose 50 mg/kg) [g]	Serum urea ([6]; single oral dose 50 mg/kg) [mg/dL]	Serum creatinine kinase ([6]; single oral dose 50 mg/kg) [U/L]	Mouse weight (g) After 48 h ([6]; single oral dose 100 mg/kg) [g]	Mouse weight (g) Initial ([6]; single oral dose 100 mg/kg) [g]	Serum urea ([6]; single oral dose 100 mg/kg) [mg/dL]	Mouse weight (g) After 48 h ([6]; single oral dose 200 mg/kg) [g]	Mouse weight (g) Initial ([6]; single oral dose 200 mg/kg) [g]	Serum urea ([6]; single oral dose 200 mg/kg) [mg/dL]	Serum creatinine kinase ([6]; single oral dose 200 mg/kg) [U/L]	Effect on parasite division, anti-IMC1 labeling ([4]; 24 h)	other results
O=C(O)c1cn(C2CC2)c2cc(N3CCNCC3)c(F)cc2c1=O [Cipro, ciprofloxacin]	significant decrease in parasite proliferation; also recorded: drastic reduction on parasite proliferation	–	–	–	–	–	–	–	–	–	–	–	–	–	–	–	–	–	–	IC50 ([1]; Cryptosporidium parvum, MDBK, after 24h, estimated, read-out: IC50 against C. parvum): 39200 nM; inhibition at 12.5 µM ([1]; Cryptosporidium parvum, 12.5 μM, 24 h, MDBK cells): 19.5 ± 1.1%; inhibition at 25 µM ([1]; Cryptosporidium parvum, 25 μM, 24 h, MDBK cells): 46.1 ± 2.9%; inhibition at 50 µM ([1]; Cryptosporidium parvum, 50 μM, 24 h, MDBK cells): 53.4 ± 2.51%; Parasite proliferation in plaque assay ([2]; 20 / 20 μM): No growth; also recorded: no plaques were observed; Vacuoles containing just one parasite ([3]; 20 μM, 6 h treatment (7 h total infection), LLC-MK2): 54%; Parasitophorous vacuoles having just one parasite ([3]; 50 μM, 6 h treatment (7 h total infection), LLC-MK2): 68%; Alteration of tachyzoites (in words) ([4]; 20 μM, 24 h): not induced any significant alteration; Parasitophorous vacuoles containing parasites presenting cell division arrest ([4]; 20 μM, 48 h): 24%; Parasitophorous vacuoles containing parasites presenting cell division arrest ([4]; 20 μM, 72 h): 26%
CCOC(=O)c1cn(C2CC2)c2cc(N3CCNCC3)c(F)cc2c1=O [Et-Cipro]	–	20.3 ± 10.1	32.6 ± 7.6	420	22.25	19.87	55.8	20.92	19.15	51.2	182	22.27	20.71	55.1	22.17	20.0	49.3	583	parasite cell division arrest	% inhibition of sporozoites growth ([1]; 50 μM, 24 h, MDBK cells): 36% and 36.43 ± 9.76%; Parasite proliferation in plaque assay ([2]; 5 μM): No growth; also recorded: no plaques were observed; Serum levels of creatinine kinase (in words) ([6]; higher doses): normal; Serum creatinine kinase ([6]; single oral dose 25 mg/kg): 1727 U/L; Serum creatinine kinase ([6]; single oral dose 100 mg/kg): 578 U/L; Vacuoles containing just one parasite ([3]; 2 μM, 6 h treatment (7 h total infection), LLC-MK2): 57%; Concentration required to affect parasite division significantly ([3]; 6 h treatment): > 2 µM; Increase in activity (cell division inhibition) compared with the original compound Cipro ([3]; 6 h treatment, concentrations with similar effect compared): 10 fold; Survival of T. gondii-infected mice, alive 60 days post-infection ([7]; 50 mg/kg/day oral): 18%; Basal IMC length mean ([4]; 1 μM, 24 h): 0.76 ± 0.20 μm; Parasite morphology, anti-SAG1 / Sytox green labeling ([4]; 5 μM, 24 h): formation of large multinucleated parasites; Basal IMC length mean ([4]; 5 μM, 24 h): 0.80 ± 0.26 μm
N[C@@H]1[C@H]2CN(c3nc4c(cc3F)c(=O)c(C(=O)O)cn4-c3ccc(F)cc3F)C[C@@H]12 [trovafloxacin]	–	–	–	–	–	–	–	–	–	–	–	–	–	–	–	–	–	–	–	IC50 ([8]; L929 cell line): 1370 nM
COc1c(N2CCNC(C)C2)c(F)cc2c(=O)c(C(=O)O)cn(C3CC3)c12 (stereo not shown) [gatifloxacin]	–	–	–	–	–	–	–	–	–	–	–	–	–	–	–	–	–	–	–	IC50 ([8]; HFF primary cell culture after 48h): 520 nM
CCOC(=O)c1cn(C2CC2)c2cc(N3CCN(Cc4ccccc4)CC3)c(F)cc2c1=O [Ph-Cipro]	No growth; also recorded: no plaques were observed	33.6 ± 11.6	42.6 ± 14.6	1240	23.85	21.21	49.2	22.72	19.30	50.6	506	21.94	19.21	52.8	22.20	19.93	46.2	1541	parasite cell division arrest	Serum levels of creatinine kinase (in words) ([6]; 200 mg/kg): slightly altered; Toxicity to mice (in words) ([6]; high doses (200mg/kg)): mild toxicity; Survival of T. gondii-infected mice, alive 60 days post-infection ([7]; 100 mg/kg/day oral): 13%; Survival of T. gondii-infected mice, alive 60 days post-infection ([7]; 150 mg/kg/day oral): 18%; Basal IMC length mean ([4]; 10 μM, 24 h): 0.73 ± 0.24 μm
